Source: patent US9834514B2, “Antibiotic sensitivity-restoring and photosensitive agents” (New Mexico Tech Research Foundation, priority 2015, dated 2017)
Converted amounts (≈) assume the structure as drawn. Where two headings read alike, the source gives them in different places.

Columns and labels:
P. aeruginosa [1] = test: Cell killing with compounds and PME at fixed concentrations, with and without white light; assay type: cell-based; conditions: for Co-treatment with PME: log reduction in the CFU/mL compared to PME alone: 20 μM compound and 0.1 μg/mL PME
Description: FIG. 26 is an example of the treatment of P. aeruginosa with compound 1 and PME at fixed concentrations.
P. aeruginosa cells were also treated with white light upon being incubated with compound 1 for different durations of time. In a 12×75 mm borosilicate glass culture tube, 1 mL of cell suspension was added. PME was added to the cells, and the samples were mixed using a vortex mixer. The resulting samples were incubated for 1.5 hours at 37° C. on a rotary shaking incubator at 100 rpm. Compound 1 was then added, and the samples were incubated for 30 minutes at 37° C. on a rotary shaking incubator at 100 rpm. The samples were then irradiated with white light using a Lumacare™ LC-122 for 2 minutes (irradiation λ1) and incubated overnight at 37° C. The samples were irradiated again with white light using a Lumacare™ LC-122 for 2 minutes (irradiation λ2). Ten-fold dilutions were made of each sample, and 10 μL of each dilution was drip-streaked onto an agar plate. The samples were incubated overnight at 37° C., and colony counts were performed to calculate CFU/mL.
FIG. 55 is an illustrative example of the treatment of P. aeruginosa with compound 1, PME, co-treatment with compound 1 and PME, and co-treatment with compound 1, PME, and light (λ1 and λ2) at fixed concentrations.

P. aeruginosa [2] = test: Resensitization to antibiotics (log reduction, TABLE 29); assay type: cell-based; conditions: compound 20 μM
[3] = MIC against MRSA isolates; assay type: cell-based, S. aureus; conditions: Staphylococcus aureus
Description: The MICs of S. aureus ATCC 33591, BAA-44, BAA-1707, BAA-1717, BAA-1720, BAA-1747, BAA-1754, BAA-1761, BAA-1763, BAA-1764, and BAA-1766 were measured using a cell concentration of about 5×10^5 colony forming units (CFU)/mL. In a 96-well microtiter plate, two-fold dilutions were made of each drug (starting with 100 μM) in 100 μL of a cell suspension in trypticase soy broth (TSB). The samples were incubated overnight at 37° C. on a rotary shaking incubator set at 100 revolutions per minute (rpm) and were visually inspected for turbidity. A 20% well-volume of 3-(4,5-dimethylthiazol-2-yl)-2,5-diphenyltetrazolium bromide (MTT reagent, 5 mg/mL) was added, and the samples were incubated for about 20 minutes. The MICs were determined as the lowest concentration at which full visual inhibition was observed by the unaided eye.

[4] = test system: MRSA isolates (S. aureus ATCC 33591, BAA-44, BAA-1707, BAA-1717, BAA-1720, BAA-1747, BAA-1754, BAA-1761, BAA-1763, BAA-1764, BAA-1766); test: Combination effects of compounds 7-11 and antibiotics on MRSA isolates (turbidity); assay type: cell-based
From the text: Inhibition resulting from co-treatment of a broth suspension with a compound of the invention and an antibiotic was compared to broth suspensions subjected to each individual treatment. A visual observation of inhibition with the unaided eye upon co-treatment of the broth suspensions, based on turbidity, was considered synergistic.
Exceptions to reading complete inhibition of growth included Gram-positive cocci. For Gram-positive cocci, trailing growth was observed. For these species, the MICs were read at the first spot where trailing was observed, and tiny buttons of growth were ignored. […]
Two-fold dilutions of the antibiotics were prepared in a liquid growth medium dispensed in test tubes. […] The antibiotic-containing tubes were inoculated with a standard bacterial suspension of 5×10^5 CFU/mL. Following an overnight incubation (16-20 hrs) at 35±2° C. under ambient air, the tubes were examined for visible bacterial growth based on turbidity. The lowest concentration of antibiotic that prevented growth was determined to be the MIC. An incubation time of 24 hrs was used to determine the MICs of oxacillin and vancomycin.

S. aureus (ATCC 29213) = test: microbe, parasite or virus in culture; assay type: cell-based
Description: Each mixture was incubated at 37° C. on a rotary shaking incubator for about 16 hours. MTT was then added to assess the viability of the cells (at 10% well volume). […] The cells were then streaked onto a TSA plate and incubated overnight at 37° C. These steps were repeated to reach a total of 30 exposures.

[5] = MRSA (ATCC BAA-44), TABLE 21, read-out: MRSA MIC
[6] = MRSA isolate ATCC BAA-44, read-out: MIC

## Clc1ccc(/C=C/c2[nH]c3ccccc3c2/C=C/c2ccc(Cl)cc2)cc1 [Compound 1]
P. aeruginosa [1]
  Co-treatment with PME: log reduction in the CFU/mL compared to PME alone: 2-log reduction
P. aeruginosa [1]; listed as compound 1
  Co-treatment with PME: log reduction in the CFU/mL compared to PME alone: ~2 log reduction
P. aeruginosa [1]; additional irradiation after an overnight incubation (λ2), FIG. 55
  reduction in the CFU/mL compared to co-treatment with compound 1 and PME: negligible reduction
P. aeruginosa [1]; light immediately after a 30 minute incubation with compound 1 (λ1), FIG. 55
  log reduction in the CFU/mL compared to co-treatment with compound 1 and PME: ~8 log
P. aeruginosa [1]; with white light, TABLE 19
  PDT: ~7-log reduction
P. aeruginosa [2]; PME (0.1 μg/mL)
  Log Reduction: 2
P. aeruginosa [2]; PME (0.1 μg/mL) + Light (2 min)
  Log Reduction: 8
[3]; [5]
  MIC: 400 µM (≈ 156 µg/mL)
[3]; [6]
  MIC: 400 µM (≈ 156 µg/mL)

## Brc1ccc(/N=N/c2c[nH]c3ccccc23)cc1 [Compound 8]
P. aeruginosa [1]
  Co-treatment with PME: log reduction in the CFU/mL compared to PME alone: 4-log reduction
P. aeruginosa [1]; listed as compound 8
  Co-treatment with PME: log reduction in the CFU/mL compared to PME alone: ~4 log reduction
P. aeruginosa [2]; PME (0.1 μg/mL)
  Log Reduction: 4
[4]; MRSA ATCC 33591
  combination effect with Gentamycin: No Synergy
  combination effect with Norfloxacin: No Synergy
  combination effect with Oxacillin: No Synergy
  combination effect with Tetracycline: No Synergy
  combination effect with Vancomycin: Susceptible
[4]; MRSA ATCC BAA-44
  combination effect with Norfloxacin: No Synergy
  combination effect with Oxacillin: No Synergy
  combination effect with Tetracycline: Susceptible
  combination effect with Vancomycin: Susceptible
[4]; MRSA ATCC BAA-1707
  combination effect with Gentamycin: Susceptible
  combination effect with Norfloxacin: Susceptible
  combination effect with Oxacillin: Susceptible
  combination effect with Tetracycline: No Synergy
  combination effect with Vancomycin: Susceptible
[4]; MRSA ATCC BAA-1717
  combination effect with Gentamycin: Susceptible
  combination effect with Norfloxacin: Susceptible
  combination effect with Oxacillin: Synergy
  combination effect with Tetracycline: Susceptible
  combination effect with Vancomycin: Susceptible
[4]; MRSA ATCC BAA-1720
  combination effect with Gentamycin: Susceptible
  combination effect with Norfloxacin: No Synergy
  combination effect with Oxacillin: Synergy
  combination effect with Tetracycline: Susceptible
  combination effect with Vancomycin: Susceptible
[4]; MRSA ATCC BAA-1747
  combination effect with Gentamycin: Susceptible
  combination effect with Norfloxacin: Susceptible
  combination effect with Oxacillin: Susceptible
  combination effect with Tetracycline: Susceptible
  combination effect with Vancomycin: Susceptible
[4]; MRSA ATCC BAA-1754
  combination effect with Gentamycin: Susceptible
  combination effect with Norfloxacin: Susceptible
  combination effect with Oxacillin: Synergy
  combination effect with Tetracycline: Susceptible
  combination effect with Vancomycin: Susceptible
[4]; MRSA ATCC BAA-1761
  combination effect with Gentamycin: Susceptible
  combination effect with Norfloxacin: No Synergy
  combination effect with Oxacillin: Susceptible
  combination effect with Tetracycline: Susceptible
  combination effect with Vancomycin: Susceptible
[4]; MRSA ATCC BAA-1763
  combination effect with Gentamycin: Susceptible
  combination effect with Norfloxacin: No Synergy
  combination effect with Oxacillin: Synergy
  combination effect with Tetracycline: Susceptible
  combination effect with Vancomycin: Susceptible
[4]; MRSA ATCC BAA-1764
  combination effect with Gentamycin: Susceptible
  combination effect with Norfloxacin: Susceptible
  combination effect with Oxacillin: Synergy
  combination effect with Tetracycline: Susceptible
  combination effect with Vancomycin: Susceptible
[4]; MRSA ATCC BAA-1766
  combination effect with Gentamycin: Susceptible
  combination effect with Norfloxacin: Susceptible
  combination effect with Oxacillin: Synergy
  combination effect with Tetracycline: Susceptible
  combination effect with Vancomycin: Susceptible
[3]; [5]
  MIC: 15 µM (≈ 4.5 µg/mL)
[3]; MRSA isolate ATCC 33591, read-out: MIC
  MIC: 3.1 to 6.3 µM (≈ 0.93 to 1.89 µg/mL)
[3]; [6]
  MIC: 15 µM (≈ 4.5 µg/mL)
[3]; MRSA isolate ATCC BAA-1707, read-out: MIC
  MIC: 6.3 µM (≈ 1.89 µg/mL)
[3]; MRSA isolate ATCC BAA-1717, read-out: MIC
  MIC: 6.3 µM (≈ 1.89 µg/mL)
[3]; MRSA isolate ATCC BAA-1720, read-out: MIC
  MIC: 6.3 µM (≈ 1.89 µg/mL)
[3]; MRSA isolate ATCC BAA-1747, read-out: MIC
  MIC: 6.3 µM (≈ 1.89 µg/mL)
[3]; MRSA isolate ATCC BAA-1754, read-out: MIC
  MIC: 12.5 µM (≈ 3.75 µg/mL)
[3]; MRSA isolate ATCC BAA-1761, read-out: MIC
  MIC: 12.5 µM (≈ 3.75 µg/mL)
[3]; MRSA isolate ATCC BAA-1763, read-out: MIC
  MIC: 6.3 µM (≈ 1.89 µg/mL)
[3]; MRSA isolate ATCC BAA-1764, read-out: MIC
  MIC: 12.5 µM (≈ 3.75 µg/mL)
[3]; MRSA isolate ATCC BAA-1766, read-out: MIC
  MIC: 12.5 µM (≈ 3.75 µg/mL)
S. aureus (ATCC 29213)
  Resistance Evolved: No
